Assay results: ChEMBL document CHEMBL4270599, “Synthesis of a 3'-C-ethynyl-β-d-ribofuranose purine nucleoside library: Discovery of C7-deazapurine analogs as potent antiproliferative nucleosides” (Eur J Med Chem, 2018)

Assays:
Assay type in all cases: functional
MOLT-4 [1] = test: Cytotoxicity against human MOLT4 cells after 48 hrs by SRB assay; details: MOLT-4, 48 h
EKVX = test: Cytotoxicity against human EKVX cells after 48 hrs by SRB assay
U-251 [2] = test: Cytotoxicity against human U251 cells after 48 hrs by SRB assay; details: U-251, 48 h
LOX IMVI = test: Cytotoxicity against human LOXIMVI cells after 48 hrs by SRB assay
IGROV-1 [3] = test: Cytotoxicity against human IGROV1 cells after 48 hrs by SRB assay; details: IGROV-1, 48 h
DU-145 = test: Cytotoxicity against human DU145 cells after 48 hrs by SRB assay; details: DU-145, 48 h
RPMI-8226 = test: Growth inhibition of human RPMI8226 cells assessed as cell growth at 10^-8 M incubated for 48 hrs by sulforhodamine B assay relative to control; details: RPMI-8226, 48 h, read-out: Activity
NCI-H322M [4] = test: Growth inhibition of human NCI-H322M cells assessed as cell growth at 10^-8 M incubated for 48 hrs by sulforhodamine B assay relative to control; details: read-out: Activity
NCI-H460 = test: Growth inhibition of human NCI-H460 cells assessed as cell growth at 10^-8 M incubated for 48 hrs by sulforhodamine B assay relative to control; details: NCI-H460, 48 h, read-out: Activity
COLO 205 = test: Growth inhibition of human COLO205 cells assessed as cell growth at 10^-8 M incubated for 48 hrs by sulforhodamine B assay relative to control; details: COLO 205, 48 h, read-out: Activity
Hs-578T [5] = test: Growth inhibition of human Hs 578T cells assessed as cell growth at 10^-8 M incubated for 48 hrs by sulforhodamine B assay relative to control; details: read-out: Activity
HOP-92 = test: Growth inhibition of human HOP92 cells assessed as cell growth at 10^-7 M incubated for 48 hrs by sulforhodamine B assay relative to control; details: HOP-92, 48 h, read-out: Activity
NCI-H522 = test: Growth inhibition of human NCI-H522 cells assessed as cell growth at 10^-7 M incubated for 48 hrs by sulforhodamine B assay relative to control; details: NCI-H522, 48 h, read-out: Activity
HCT-15 = test: Growth inhibition of human HCT15 cells assessed as cell growth at 10^-7 M incubated for 48 hrs by sulforhodamine B assay relative to control; details: HCT-15, 48 h, read-out: Activity
SF-268 = test: Growth inhibition of human SF268 cells assessed as cell growth at 10^-7 M incubated for 48 hrs by sulforhodamine B assay relative to control; details: SF-268, 48 h, read-out: Activity
SK-MEL-28 = test: Growth inhibition of human SK-MEL-28 cells assessed as cell growth at 10^-7 M incubated for 48 hrs by sulforhodamine B assay relative to control; details: SK-MEL-28, 48 h, read-out: Activity
IGROV-1 [6] = test: Growth inhibition of human IGROV1 cells assessed as cell growth at 10^-7 M incubated for 48 hrs by sulforhodamine B assay relative to control; details: IGROV-1, 48 h, read-out: Activity
OVCAR-8 = test: Growth inhibition of human OVCAR8 cells assessed as cell growth at 10^-7 M incubated for 48 hrs by sulforhodamine B assay relative to control; details: OVCAR-8, 48 h, read-out: Activity
NCI/ADR-RES = test: Growth inhibition of human NCI/ADR-RES cells assessed as cell growth at 10^-7 M incubated for 48 hrs by sulforhodamine B assay relative to control; details: read-out: Activity
MOLT-4 [7] = test: Growth inhibition of human MOLT4 cells assessed as cell growth at 10^-6 M incubated for 48 hrs by sulforhodamine B assay relative to control; details: MOLT-4, 48 h, read-out: Activity
Malme-3M = test: Growth inhibition of human MALME-3M cells assessed as cell growth at 10^-6 M incubated for 48 hrs by sulforhodamine B assay relative to control; details: read-out: Activity
SK-MEL-2 = test: Growth inhibition of human SK-MEL-2 cells assessed as cell growth at 10^-6 M incubated for 48 hrs by sulforhodamine B assay relative to control; details: SK-MEL-2, 48 h, read-out: Activity
OVCAR-5 = test: Growth inhibition of human OVCAR5 cells assessed as cell growth at 10^-6 M incubated for 48 hrs by sulforhodamine B assay relative to control; details: OVCAR-5, 48 h, read-out: Activity
A498 = test: Growth inhibition of human A498 cells assessed as cell growth at 10^-6 M incubated for 48 hrs by sulforhodamine B assay relative to control; details: A498, 48 h, read-out: Activity
Hs-578T [8] = test: Growth inhibition of human Hs 578T cells assessed as cell growth at 10^-6 M incubated for 48 hrs by sulforhodamine B assay relative to control; details: read-out: Activity
K562 = test: Growth inhibition of human K562 cells assessed as cell growth at 10^-5 M incubated for 48 hrs by sulforhodamine B assay relative to control; details: K562, 48 h, read-out: Activity
NCI-H226 = test: Growth inhibition of human NCI-H226 cells assessed as cell growth at 10^-5 M incubated for 48 hrs by sulforhodamine B assay relative to control; details: NCI-H226, 48 h, read-out: Activity
NCI-H322M [9] = test: Growth inhibition of human NCI-H322M cells assessed as cell growth at 10^-5 M incubated for 48 hrs by sulforhodamine B assay relative to control; details: read-out: Activity
KM12 = test: Growth inhibition of human KM12 cells assessed as cell growth at 10^-4 M incubated for 48 hrs by sulforhodamine B assay relative to control; details: KM12, 48 h, read-out: Activity
U-251 [10] = test: Growth inhibition of human U251 cells assessed as cell growth at 10^-4 M incubated for 48 hrs by sulforhodamine B assay relative to control; details: U-251, 48 h, read-out: Activity
OVCAR-3 = test: Growth inhibition of human OVCAR3 cells assessed as cell growth at 10^-4 M incubated for 48 hrs by sulforhodamine B assay relative to control; details: OVCAR-3, 48 h, read-out: Activity
UACC-62 = test: Growth inhibition of human UACC62 cells assessed as cell growth at 10^-8 M incubated for 48 hrs by sulforhodamine B assay relative to control; details: UACC-62, 48 h, read-out: Activity
[11] = read-out: pLC50 (the source's name) (converted)
[12] = read-out: LC50 (the source's name)

Structure (SMILES): C#C[C@@]1(O)[C@@H](CO)O[C@@H](n2cc(F)c3c(N)ncnc32)[C@@H]1O
- TGI (MOLT-4 [1]; read-out: TGI): > 100 µM
- GI50 (MOLT-4 [1]; read-out: pGI50 (converted)): 0.302 µM
- CC50 (MOLT-4 [1]; [11]): > 100 µM
- TGI (MOLT-4 [1]; read-out: pTGI (converted)): > 100 µM
- CC50 (EKVX; [12]): > 100 µM
- TGI (EKVX; read-out: TGI): 11.3 µM
- GI50 (EKVX; read-out: pGI50 (converted)): 0.676 µM
- TGI (EKVX; read-out: pTGI (converted)): 11.2 µM
- GI50 (U-251 [2]; read-out: GI50): 0.631 µM
- TGI (U-251 [2]; read-out: TGI): 11.6 µM
- GI50 (U-251 [2]; read-out: pGI50 (converted)): 0.631 µM
- CC50 (U-251 [2]; [11]): > 100 µM
- TGI (U-251 [2]; read-out: pTGI (converted)): 11.7 µM
- TGI (LOX IMVI; read-out: TGI): 1.11 µM
- GI50 (LOX IMVI; read-out: pGI50 (converted)): 0.282 µM
- CC50 (LOX IMVI; [11]): 4.57 µM
- TGI (LOX IMVI; read-out: pTGI (converted)): 1.12 µM
- CC50 (IGROV-1 [3]; [12]): > 100 µM
- TGI (IGROV-1 [3]; read-out: TGI): 1.42 µM
- GI50 (IGROV-1 [3]; read-out: pGI50 (converted)): 0.324 µM
- TGI (IGROV-1 [3]; read-out: pTGI (converted)): 1.41 µM
- CC50 (DU-145; [12]): > 100 µM
- TGI (DU-145; read-out: TGI): 13.4 µM
- GI50 (DU-145; read-out: pGI50 (converted)): 0.355 µM
- TGI (DU-145; read-out: pTGI (converted)): 13.5 µM
- growth at 0.01 µM (RPMI-8226): 94%
- growth at 0.01 µM (NCI-H322M [4]): 93%
- growth at 0.01 µM (NCI-H460): 100%
- growth at 0.01 µM (COLO 205): 101%
- growth at 0.01 µM (Hs-578T [5]): 92%
- growth at 0.1 µM (HOP-92): -1%
- growth at 0.1 µM (NCI-H522): 68%
- growth at 0.1 µM (HCT-15): 79%
- growth at 0.1 µM (SF-268): 105%
- growth at 0.1 µM (SK-MEL-28): 95%
- growth at 0.1 µM (IGROV-1 [6]): 96%
- growth at 0.1 µM (OVCAR-8): 74%
- growth at 0.1 µM (NCI/ADR-RES): 76%
- growth at 1 µM (MOLT-4 [7]): 11%
- growth at 1 µM (Malme-3M): 12%
- growth at 1 µM (SK-MEL-2): 22%
- growth at 1 µM (OVCAR-5): 65%
- growth at 1 µM (A498): 43%
- growth at 1 µM (Hs-578T [8]): 97%
- growth at 10 µM (K562): 8%
- growth at 10 µM (NCI-H226): -44%
- growth at 10 µM (NCI-H322M [9]): -17%
- growth at 100 µM (KM12): -10%
- growth at 100 µM (U-251 [10]): -18%
- growth at 100 µM (OVCAR-3): 3%
- growth at 0.01 µM (UACC-62): 94%
